In patent US20210275422A1, “ANTI-STRESS COMPOSITION CONTAINING COSMOPERINE” (AMOREPACIFIC CORPORATION, priority 2016, published 2021):

Columns and labels:
[1] = target: T1, oxytocin receptor recombinant protein (Homo sapiens, UniProt P30559); assay: Binding of cosmoperine to the oxytocin receptor by surface plasmon resonance; details: SPR chip with oxytocin receptor bound to its surface; cosmoperine 0 to 400 μM; reaction for 90 seconds
T1 construct: purchased Mybiosource, MA
T1 sequence (P30559 1-389): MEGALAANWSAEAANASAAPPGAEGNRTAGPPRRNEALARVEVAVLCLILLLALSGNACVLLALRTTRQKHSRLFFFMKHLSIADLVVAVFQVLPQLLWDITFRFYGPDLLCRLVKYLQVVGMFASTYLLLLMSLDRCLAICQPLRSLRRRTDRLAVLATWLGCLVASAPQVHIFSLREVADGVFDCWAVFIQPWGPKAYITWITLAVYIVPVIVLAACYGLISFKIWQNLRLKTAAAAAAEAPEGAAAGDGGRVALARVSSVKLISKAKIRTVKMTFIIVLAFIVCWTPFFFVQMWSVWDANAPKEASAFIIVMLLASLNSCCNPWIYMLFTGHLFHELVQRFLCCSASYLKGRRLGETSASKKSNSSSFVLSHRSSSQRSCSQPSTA
Protocol: In order to confirm the binding of cosmoperine to the oxytocin receptor, cosmoperine (Sabina Corp, NJ) at a concentration of 0 to 400 μM was applied to a SPR chip (Biorad, MA) with the oxytocin receptor (oxytocin receptor recombinant protein, Mybiosource, MA) bound to its surface, followed by reaction for 90 seconds. Then, the binding pattern of cosmoperine to the oxytocin receptor was measured using a surface plasmon resonance device (Surface plasmon resonance; Biorad, MA).

PC12 (neurocytoma cell) = assay: Inhibitory effect on glucocorticoid-induced apoptosis (CCK-8 cell survival); assay type: cell-based; details: PC12 cells, 400 μM corticosterone 24 hours, 50 μM cosmoperine pretreated 2 hours before, relative survival rate
Protocol: In order to confirm the anti-stress effect of cosmoperine, a test was performed for glucocorticoid-induced apoptosis.
PC12 (neurocytoma cell; KCLB21721, Korea Cell Line Bank) was seeded into a 96-well plate at 2×10^4 cells/well and cultured at 5% CO2 and 37° C. The culture medium was RPMI 1640 medium (Gibco BRL, Grand Island, N.Y., USA)) supplemented with 10% serum (heat-inactivated fetal bovine serum (FBS, Gibco)), 100 U/ml of penicillin (Gibco) and 100 μg/ml of streptomycin (Gibco). The cells were treated with 400 μM corticosterone (Sigma, MA), which is a stress hormone, and cultured at 5% CO2 and 37° C. for 24 hours to induce stress. 400 μM corticosterone and 50 μM fluoxetine (fluoxetine hydrochloride, Sigma), which is an antidepressant, were used as the positive control group. For the cosmoperine-treated group, 400 μM corticosterone and 50 μM cosmoperine (Sabina Corp, NJ) were used. Fluoxetine and cosmoperine each were pretreated 2 hours before the application of corticosterone. 10 μl of CCK-8 solution (Dojindo Laboratories) was added to each of the wells, followed by culture for 2 hours. Then, measurements were made at […].

O=C(CCCCc1ccc2c(c1)OCO2)N1CCCCC1 [cosmoperine, tetrahydropiperine]
binding to the oxytocin receptor [1]: binds to the oxytocin receptor in a concentration-dependent manner
inhibiting the apoptosis induced by corticosterone (PC12 (neurocytoma cell)): excellent in inhibiting the apoptosis induced by corticosterone
